According to ChEMBL document CHEMBL5236632, “Membrane-Active Nonivamide Derivatives as Effective Broad-Spectrum Antimicrobials: Rational Design, Synthesis, and Biological Evaluation” (J Med Chem, 2022):

Experiments:
[1] = tested on: Escherichia coli; test: Inhibition of biofilm formation Escherichia coli ATCC 25922 assessed as decrease in biofilm formation at 0.78 ug/ml measured after 24 hrs by crystal violet staining assay; format: functional
[2] = tested on: Escherichia coli; test: Antibacterial activity against Escherichia coli ATCC 25922 assessed as fold increase in MIC measured after 18 to 24 hrs in presence of 512 ug/ml LTA/LPS by broth dilution method; format: functional; settings: time 18-24 hrs
[3] = tested on: Staphylococcus aureus; test: Inhibition of biofilm formation Staphylococcus aureus ATCC 29213 assessed as decrease in biofilm formation at 0.39 ug/ml measured after 24 hrs by crystal violet staining assay; format: functional
[4] = tested on: Staphylococcus aureus; test: Inhibition of biofilm formation Staphylococcus aureus ATCC 29213 assessed as decrease in biofilm formation at 0.78 ug/ml measured after 24 hrs by crystal violet staining assay; format: functional
[5] = Selectivity ratio, HC50 for hemolytic activity in rabbit RBC to MIC for antibacterial activity against Klebsiella pneumoniae ATCC 10031; format: toxicity; settings: rabbit red blood cells
[6] = tested on: Staphylococcus aureus; test: Antibacterial activity against Staphylococcus aureus ATCC 29213 assessed as fold increase in MIC measured after 18 to 24 hrs in presence of 512 ug/ml LTA/LPS by broth dilution method; format: functional; settings: time 18-24 hrs
[7] = tested on: Staphylococcus aureus; test: Eradication of biofilm in Staphylococcus aureus ATCC 29213 assessed as biofilm viability at 6.25 ug/ml measured after 24 hrs by crystal violet staining assay; format: functional; settings: dose 6.25 µg/ml
[8] = tested on: Escherichia coli; test: Antibacterial activity against Escherichia coli ATCC 25922 assessed as reduction in bacterial load at 8 time of MIC measured with in 30 mins by time kill assay; format: functional; settings: 0.5 h
[9] = tested on: Escherichia coli; test: Antibacterial activity against Escherichia coli […] assessed as inhibition of visible growth measured after 18 to 24 hrs in presence of 175.5 ug/ml K+ by broth dilution method; format: functional; settings: time 18-24 hrs

SMILES: CCCCCCCCC(=O)NCc1ccc(OCCCCCCNC(=N)N)c(OCCCCCCNC(=N)N)c1
- inhibition at 0.78 µg/mL [1]: 88.9%
- fold change (FC) [2]: 16
- inhibition at 0.39 µg/mL [3]: 97.8%
- inhibition at 0.78 µg/mL [4]: 99.7%
- selectivity ratio [5]: 21.6
- fold change (FC) [6]: 8
- Activity [7]: 10.9%
- Activity [8]: 4.56 log10CFU/ml
- MIC [9]: 1.56 µg/mL
